US20100075907A1, “NEUROMEDIN U RECEPTOR AGONISTS AND USES THEREOF” (priority 2006, published 2010)
Non-standard residues stand in square brackets, D forms with d. Residues, ends and D or L forms follow the SMILES beside them. No end group written: not given here. *: point of attachment. X1 = CC(C)CCC[C@@H](C)[C@H]1CC[C@H]2[C@@H]3CC=C4C[C@@H](OC(=O)C*)CC[C@]4(C)[C@H]3CC[C@]12C; Succinimide(1-Et,3-yl) = CCN1C(=O)CC(*)C1=O; hArg = N=C(N)NCCCC[C@H](N)C(=O)O; dNle = CCCC[C@@H](N)C(=O)O

Columns and labels:
Format in all cases: cell-based
hNMUR2 [1] = target: T1, hNMUR2 (Homo sapiens, UniProt Q9GZQ4); assay: In vitro functional assay, HEK-hR2 cells; parameters: expressed in transfected cells; host or cells: FLP-In CHO or HEK-293 FLP-In cells (pcDNA5); HEK-293/aeq17 lines (pcDNA3.1) were also made; % Activity: concentration or dose not given beside the values
Text: (§1) Human, mouse or rat cDNAs encoding NMUR1 or NMUR2 (as described in Howard et al. Nature 406: 70-74 (2000) were subcloned in pcDNA5 (Invitrogen) and transfected into FLP-In CHO cells and HEK-293 FLP-In cells purchased from Invitrogen (Carlsbad, Calif.) using lipofectamine (Invitrogen). The Flp-In system allows integration and expression of a particular gene of interest at a specific genomic location utilizing the Flp recombinase from yeast. The transfected cells were selected by growth in medium containing 200 μg/mL hygromycin (Invitrogen). Populations were frozen at early passage numbers, and these stocks were used for further studies. Stable clones that expressed the mRNAs were identified functionally by FLIPR as well as by RT-PCR. […] Two different rodent NMUR1 cell lines were thus generated: one with the codon as predicted from the genomic databases and another cell line with an engineered methionine (ATG) as the start codon. Additionally, stable cell lines expressing the human receptors were generated in HEK-293/aeq17 cells which stably express the aequorin gene under the CMV promoter. The human NMUR2 cDNA was cloned into pcDNA3.1 and human NMUR1 was subcloned into pIRES-puro (Clontech, Mountain View, Calif.), after transfection cells were selected in media containing G418 and either hygromycin (NMUR2) or puromycin (NMUR1).
(§2) The NMU receptors signal primarily through Gαq/11 proteins; therefore calcium mobilization assays can be utilized for functional activity.
(§3) Stable cell lines expressing human and or rodent NMUR1 or human NMUR2 receptors were plated at a density of 12,000 cells per well overnight on poly-lysine coated 384-well black-walled plates. The following day, the media was removed from the plates and the cells were subsequently loaded with Fluo-3 (Molecular Probes), a calcium sensitive dye, diluted in FLIPR buffer (1× Hank's buffered saline containing 20 mM HEPES, 0.1% BSA, 2.5 mM probenecid (Sigma) and 1.6 mM TR40). All reagents are from Invitrogen unless otherwise noted. Peptide stocks were resuspended in DMSO at a stock concentration of 2 mM and diluted in FLIPR buffer on the day of the experiment to a 4 μM working stock solution.
(§4) After a 90 minute incubation at room-temperature, cell plates were loaded onto a FLIPR (Molecular Devices) to monitor cellular fluorescence (excitation=488 nm; emission=540 nm) before and after compound/peptide addition. Eight to twelve point dose responses were tested on NMUR-expressing cell lines using FLIPR with 1 μM peptide as the highest dose. The response after peptide addition was taken as the maximum fluorescence units minus the fluorescence immediately prior to stimulation for each well. EC50 values were calculated using GraphPad Prism (San Diego, Calif.) software.
In addition to FLIPR, NMU receptor function can also be evaluated using an aequorin assay. Stable cell lines expressing the aequorin jelly fish gene can be used to report the activation of GPCRs by monitoring intracellular calcium mobilization. The objective is to identify compounds which specifically stimulate aequorin bioluminescence. Calcium-dependent luminescence is generated by the treatment of cells with the coelenterate luciferin, coelenterazine. Briefly, confluent monolayers of HEK-293/aeq 17 cells expressing hNMUR1 or hNMUR2 are “charged” with coelenterazine (Molecular Probes, Carlsbad, Calif.). Confluent T75 flasks are rinsed with media containing 300 μM glutathione and 0.1% FBS. Cells are incubated at 37° C. for one hour in 8 mL media, 0.1% FBS, 300 μM glutathione, and 20 μM coelenterazine. T75 flasks are subsequently rinsed with 6 mL ECB buffer (140 mM NaCl, 20 mM KCl, 20 mM HEPES, 5 mM glucose, 1 mM MgCl, 1 mM CaCl2, 0.1 mg/mL BSA, PH 7.3-7.4). Cells are removed from the flask in ECB buffer, pelleted, and resuspended at a density of 2×10^5 cells/mL. Agonists are added to the cells and activity is determined using a luminometer.

hNMUR2 [2] = target: T1, hNMUR2; assay: FLIPR calcium mobilization assay, human NMUR2; parameters: expressed in transfected cells; host or cells: FLP-In CHO or HEK-293 FLP-In cells (pcDNA5); HEK-293/aeq17 lines (pcDNA3.1) were also made; conditions: human NMUR2; for EC50: FLIPR; for % Activity: maximum response at 1 μM compared to hNMU-25
Text: as §1, §2, §3, §4
(§5) In vitro responses of Neuromedin U receptor agonists (NMU1 to NMU25) in the FLIPR assay for human (Table 3), mouse (Table 4) and rat (Table 5) NMUR1 and NMUR2. EC50s are reported in nM values. Percent activity refers to the maximum response at 1 μM compared to the hNMU-25 response at the same concentration. NT=not tested.

Mouse NMUR1-CTG = target: T2, Mouse NMUR1-CTG (Mus musculus, UniProt O55040); assay: FLIPR calcium mobilization assay, mouse NMUR1-CTG; parameters: expressed in transfected cells; host or cells: FLP-In CHO or HEK-293 FLP-In cells (pcDNA5); conditions: for % Activity: maximum response at 1 μM compared to hNMU-25
T2 sequence (O55040 1-428): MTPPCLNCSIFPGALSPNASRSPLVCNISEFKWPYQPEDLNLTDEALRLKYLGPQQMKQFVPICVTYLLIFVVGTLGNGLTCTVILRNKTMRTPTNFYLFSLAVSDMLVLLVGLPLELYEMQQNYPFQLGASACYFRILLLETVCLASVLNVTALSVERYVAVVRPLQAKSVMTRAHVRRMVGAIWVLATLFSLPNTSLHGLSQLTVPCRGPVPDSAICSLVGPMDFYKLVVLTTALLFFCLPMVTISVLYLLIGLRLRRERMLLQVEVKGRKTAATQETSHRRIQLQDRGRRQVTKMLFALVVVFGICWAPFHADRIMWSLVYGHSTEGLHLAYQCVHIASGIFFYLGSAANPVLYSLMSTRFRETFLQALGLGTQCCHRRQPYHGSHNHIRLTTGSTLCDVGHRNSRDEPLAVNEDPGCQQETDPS
Text: as §1, §2, §3, §4, §5

T1 sequence (Q9GZQ4 whole entry): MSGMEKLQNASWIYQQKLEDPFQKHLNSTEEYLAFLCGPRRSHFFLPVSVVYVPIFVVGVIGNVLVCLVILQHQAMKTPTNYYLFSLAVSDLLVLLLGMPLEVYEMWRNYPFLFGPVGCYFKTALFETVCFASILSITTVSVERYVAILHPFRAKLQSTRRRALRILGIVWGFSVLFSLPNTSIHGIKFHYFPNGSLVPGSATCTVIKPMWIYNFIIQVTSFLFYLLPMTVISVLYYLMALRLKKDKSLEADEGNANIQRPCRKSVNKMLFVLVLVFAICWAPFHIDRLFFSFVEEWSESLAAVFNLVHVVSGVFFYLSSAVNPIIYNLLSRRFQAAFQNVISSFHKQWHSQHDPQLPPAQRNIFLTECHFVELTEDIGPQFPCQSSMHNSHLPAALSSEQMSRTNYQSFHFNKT

Compound: CC(C)C[C@H](NC(=O)[C@H](Cc1c[nH]c2ccccc12)NC(=O)[C@H](Cc1ccccc1)NC(=O)CNC(=O)[C@H](CCCNC(=N)N)NC(=O)[C@H](CO)NC(=O)[C@H](CCC(N)=O)NC(=O)[C@H](CO)NC(=O)[C@H](C)NC(=O)[C@H](Cc1ccccc1)NC(=O)[C@@H]1CCCN1C(=O)[C@H](CO)NC(=O)[C@H](CCC(N)=O)NC(=O)[C@H](Cc1ccccc1)NC(=O)[C@H](CCC(=O)O)NC(=O)[C@H](CCC(=O)O)NC(=O)[C@H](CC(=O)O)NC(=O)[C@@H](NC(=O)[C@H](CCCNC(=N)N)NC(=O)[C@@H](N)Cc1ccccc1)C(C)C)C(=O)N[C@@H](Cc1ccccc1)C(=O)N[C@@H](CCCNC(=N)N)C(=O)N[C@@H](C)C(=O)N[C@@H](CCCCNC(=N)N)C(=O)N[C@@H](CC(N)=O)C(N)=O [Agonist P] (H-FRVDEEFQSPFASQSRGFWLFRA[hArg]N-NH2; N-terminus assumed)
- % Activity (hNMUR2 [1]; Table 9, HEK-hR2, functional): 100%

Compound: CCCC[C@@H](NC(=O)[C@H](CCCNC(=N)N)NC(=O)[C@@H]1CCCN1C(=O)[C@H](CCCNC(=N)N)NC(=O)[C@H](Cc1ccccc1)NC(=O)[C@H](CC(C)C)NC(=O)[C@H](Cc1c[nH]c2ccccc12)NC(=O)[C@H](Cc1ccccc1)NC(=O)CNC(=O)[C@H](CCCNC(=N)N)NC(=O)[C@H](CO)NC(=O)[C@H](CCC(N)=O)NC(=O)[C@H](CO)NC(=O)[C@H](C)NC(=O)[C@H](Cc1ccccc1)NC(=O)[C@@H]1CCCN1C(=O)[C@H](CO)NC(=O)[C@H](CCC(N)=O)NC(=O)[C@H](Cc1ccccc1)NC(=O)[C@H](CCC(=O)O)NC(=O)[C@H](CCC(=O)O)NC(=O)[C@H](CC(=O)O)NC(=O)[C@@H](NC(=O)[C@H](CCCNC(=N)N)NC(=O)[C@@H](N)Cc1ccccc1)C(C)C)C(N)=O [Agonist Q] (H-FRVDEEFQSPFASQSRGFWLFRPR[dNle]-NH2)
- % Activity (hNMUR2 [1]; Table 9, HEK-hR2, functional): 97%

Compound: CCN1C(=O)CC(SC[C@H](NC(C)=O)C(=O)NCC(=O)N[C@@H](Cc2ccc(O)cc2)C(=O)N[C@@H](Cc2ccccc2)C(=O)N[C@@H](CC(C)C)C(=O)N[C@@H](Cc2ccccc2)C(=O)N[C@@H](CCCNC(=N)N)C(=O)N2CCC[C@H]2C(=O)N[C@@H](CCCNC(=N)N)C(=O)N[C@@H](CC(N)=O)C(N)=O)C1=O (some centres unmarked) [NMU6] (Ac-C(Succinimide(1-Et,3-yl))GYFLFRPRN-NH2)
- EC50 (hNMUR2 [2]): 1.5 nM
- % Activity (hNMUR2 [2]): 100%
- % Activity (Mouse NMUR1-CTG; mouse NMUR1-CTG): 100%

Compound: CCN1C(=O)CC(SC[C@H](NC(C)=O)C(=O)N[C@@H](Cc2ccccc2)C(=O)N[C@@H](CCCNC(=N)N)C(=O)N[C@H](C(=O)N[C@@H](CC(=O)O)C(=O)N[C@@H](CCC(=O)O)C(=O)N[C@@H](CCC(=O)O)C(=O)N[C@@H](Cc2ccccc2)C(=O)N[C@@H](CCC(N)=O)C(=O)N[C@@H](CO)C(=O)N2CCC[C@H]2C(=O)N[C@@H](Cc2ccccc2)C(=O)N[C@@H](C)C(=O)N[C@@H](CO)C(=O)N[C@@H](CCC(N)=O)C(=O)N[C@@H](CO)C(=O)N[C@@H](CCCNC(=N)N)C(=O)NCC(=O)N[C@@H](Cc2ccc(O)cc2)C(=O)N[C@@H](Cc2ccccc2)C(=O)N[C@@H](CC(C)C)C(=O)N[C@@H](Cc2ccccc2)C(=O)N[C@@H](CCCNC(=N)N)C(=O)N2CCC[C@H]2C(=O)N[C@@H](CCCNC(=N)N)C(=O)N[C@@H](CC(N)=O)C(N)=O)C(C)C)C1=O (some centres unmarked) [NMU8] (Ac-C(Succinimide(1-Et,3-yl))FRVDEEFQSPFASQSRGYFLFRPRN-NH2)
- % Activity (hNMUR2 [2]): 100%
- % Activity (Mouse NMUR1-CTG; mouse NMUR1-CTG): 100%

Compound: CC(=O)N[C@@H](CSCC(=O)O[C@H]1CC[C@@]2(C)C(=CC[C@H]3[C@@H]4CC[C@H]([C@H](C)CCCC(C)C)[C@@]4(C)CC[C@@H]32)C1)C(=O)NCC(=O)N[C@@H](Cc1ccc(O)cc1)C(=O)N[C@@H](Cc1ccccc1)C(=O)N[C@@H](CC(C)C)C(=O)N[C@@H](Cc1ccccc1)C(=O)N[C@@H](CCCNC(=N)N)C(=O)N1CCC[C@H]1C(=O)N[C@@H](CCCNC(=N)N)C(=O)N[C@@H](CC(N)=O)C(N)=O [NMU11] (Ac-C(X1)GYFLFRPRN-NH2)
- % Activity (hNMUR2 [2]): 37.3%
- % Activity (Mouse NMUR1-CTG; mouse NMUR1-CTG): 65.0%

Compound: CC(C)C[C@H](NC(=O)[C@H](Cc1ccccc1)NC(=O)[C@@H](N)Cc1ccc(O)cc1)C(=O)N[C@@H](Cc1ccccc1)C(=O)N[C@@H](CCCNC(=N)N)C(=O)N1CCC[C@H]1C(=O)N[C@@H](CCCNC(=N)N)C(=O)N[C@@H](CC(N)=O)C(N)=O [NMU-8, reference compound]
- % Activity (hNMUR2 [1]; Table 9, HEK-hR2, functional): 104%

Compound: Ac-C2FRVDEEFQSPFASQSRGYFLFRPRN-CONH2 [NMU9] ({Ac-C(PEG 40 kDa)}-FRVDEEFQSPFASQSRGYFLFRPRN-NH2) [C2 = Cys(PEG)240 kDa from Nektar (mPEG2-MAL-40 k)]
- EC50 (hNMUR2 [2]): 91.1 nM
- % Activity (hNMUR2 [2]): 94.3%

Compound: Ac-C4-C4-FRVDEEFQSPFASQSRGYFLFRPRN-CONH2 ({Ac-C(PEG 20 kDa)-C(PEG 20 kDa)}-FRVDEEFQSPFASQSRGYFLFRPRN-NH2) [NMU23, C4 = Cys(PEG)20 kDa]
- EC50 (Mouse NMUR1-CTG; FLIPR, mouse NMUR1-CTG): 770 nM
- % Activity (Mouse NMUR1-CTG; mouse NMUR1-CTG): 50.9%

Compound: Ac-FFRPRN-NH2 [Agonist F, Ac-FFRPRN-CONH2]
- % Activity (hNMUR2 [1]; Table 8, HEK-hR2, functional): 96%
- IC50 (hNMUR2 [1]; Table 8, HEK-hR2, functional): 870 nM

Compound: FALFRPRN-NH2 [Agonist N]
- % Activity (hNMUR2 [1]; Table 9, HEK-hR2, functional): 100%

Compound: H-FRVDEEFQSPFASQSRGYFLFRPRN-NH2 [hNMU-25, reference compound]
- IC50 (Mouse NMUR1-CTG; functional data, mouse R1-CTG): 2.9 nM
- % Activity (hNMUR2 [1]; Table 9, HEK-hR2, functional): 100%
- EC50 (hNMUR2 [1]; Table 9, HEK-hR2, functional): 1.5 nM

Compound: H-FRVDEEFQSPFASQSRGYFWRPRN-NH2 [Agonist G]
- % Activity (hNMUR2 [1]; Table 8, HEK-hR2, functional): 14%
- IC50 (hNMUR2 [1]; Table 8, HEK-hR2, functional): > 1000 nM

Compound: H-FWLFRARN-NH2 [Agonist L]
- % Activity (hNMUR2 [1]; Table 9, HEK-hR2, functional): 100%

Compound: H-YFGWRPRN-NH2 [Agonist C]
- % Activity (hNMUR2 [1]; Table 8, HEK-hR2, functional): 0%
- IC50 (hNMUR2 [1]; Table 8, HEK-hR2, functional): > 1000 nM

Compound: WALFRARN-NH2 [Agonist M]
- % Activity (hNMUR2 [1]; Table 9, HEK-hR2, functional): 93%
- EC50 (hNMUR2 [1]; Table 9, HEK-hR2, functional): 33 nM

Compound: YFWRPRN-NH2 [Agonist A, YFWRPRN-CONH2]
- % Activity (hNMUR2 [1]; Table 8, HEK-hR2, functional): 0%
- IC50 (hNMUR2 [1]; Table 8, HEK-hR2, functional): > 1000 nM
